Assay results from patent US20080091033A1, “Nonsolvate-Form Crystal of Polymethine Compound, Process for Producing the Same and Use Thereof” (YAMAMOTO CHEMICALS, INC., priority 2004, published 2008).
Structures can show the parent of a compound that is named as a salt.

Assays:
[1] = solution stability test (decomposition percentage from absorbance before and after standing); assay type: physicochemical; conditions: 5% (w/v) in ethanol/methyl ethyl ketone (1/1 by volume), room temperature, 10 days of standing
Description: A solution stability test was carried out in the following manner.
Each polymethine compound specified below in Table 1 was dissolved in a mixture of ethanol and methyl ethyl ketone (1/1 by volume) to a concentration of 5% (w/v) and the solution was allowed to stand in a room (at room temperature) for 10 days. The absorbance (gram extinction coefficient) of the solution was measured before and after standing, and the decomposition percentage was calculated using the following formula.
Decomposition percentage (%)=[(absorbance just after preparation of solution−absorbance after 10 days of standing)/(absorbance just after preparation of solution)]×100

[2] = solubility in methanol and ethanol; assay type: physicochemical; conditions: for solubility in ethanol: solvent ethanol; for solubility in methanol: solvent methanol

SMILES | Decomposition percentage [1] [%] | solubility in ethanol [2] [%] | solubility in methanol [2] [%] | melting point
CN1/C(=C\C=C2/CCC(/C=C/C3=[N+](C)c4ccccc4C3(C)C)=C2Cl)C(C)(C)c2ccccc21 [Comparative Example 1, reference compound] | 8.1 |  |  | 
CN1/C(=C\C=C2/CCC(/C=C/C3=[N+](C)c4ccccc4C3(C)C)=C2Cl)C(C)(C)c2ccccc21 [Example 1] | 2.0 | ≥ 15 | ≥ 15 | 
CN1/C(=C\C=C2/CCC(/C=C/C3=[N+](C)c4ccccc4C3(C)C)=C2Cl)C(C)(C)c2ccccc21 [Example 5] |  | ≥ 15 | ≥ 15 | 
CN1/C(=C\C=C2/CCC(/C=C/C3=[N+](C)c4ccccc4C3(C)C)=C2Cl)C(C)(C)c2ccccc21 [Example 3] | 2.2 | ≥ 15 | ≥ 15 | 
CN1/C(=C\C=C2/CCC(/C=C/C3=[N+](C)c4ccccc4C3(C)C)=C2Cl)C(C)(C)c2ccccc21 [Example 4] | 1.9 | ≥ 15 | ≥ 15 | 
CN1/C(=C\C=C2/CCC(/C=C/C3=[N+](C)c4ccccc4C3(C)C)=C2Cl)C(C)(C)c2ccccc21 (as salt: toluenesulfonate) (hydrate or solvate) [Example 3] |  |  |  | 198 to 199 °C (dec.)
CN1/C(=C\C=C2/CCC(/C=C/C3=[N+](C)c4ccccc4C3(C)C)=C2Cl)C(C)(C)c2ccccc21 [Example 2] | 2.1 | ≥ 15 | ≥ 15 | 
CN1/C(=C\C=C2/CCC(/C=C/C3=[N+](C)c4ccccc4C3(C)C)=C2Cl)C(C)(C)c2ccccc21 (as salt: toluenesulfonate) (hydrate or solvate) [Example 1] |  |  |  | 199 to 200 °C (dec.)
CN1/C(=C\C=C2/CCC(/C=C/C3=[N+](C)c4ccccc4C3(C)C)=C2Cl)C(C)(C)c2ccccc21 (as salt: toluenesulfonate) (hydrate or solvate) [Example 2] |  |  |  | 201 to 203 °C (dec.)
